Experimental data reported in patent EP0089143A1, “Diagnosis of kidney function” (AMERSHAM INTERNATIONAL plc, priority 1982, dated 1983).

Tests used:
[1] = Biodistribution and renal clearance after injection into rats (bladder activity over time, dissection at 2 hr); format: in vivo; conditions: for % in bladder of that at 2 hrs.: group value (4-8 animals)
Method: Solutions of complexes ^*1 and ^*2 from Example 1 were injected into rats and the biodistribution pattern noted. The results of these experiments in rats are summarised in Table 1 below, comparing the data on ^*1 and ^*2 with earlier data on TDG-Tc-99m, Hippuran -1-131 and DTPA-Tc-99m under identical conditions. In all cases, data from animal experiments was used only when the renal performance appeared "normal", i.e. no unilateral or bilateral renal retention. Data was also rejected in cases of significant retention of activity at the injection site.
The solution was filtered through a 0.22 micron membrane filter prior to administration to rats.
The solution was filtered through a 0.22 micron membrane filter prior to adminstration to rats.
A sealed nitrogen filled vial, containing the freeze dried formulation of 20mg TDG, 0.15 mg SnF2, 1 mg NaF and 0.5 mg sodium nitrate was treated with 2 ml of eluate from a technetium generator (6mCi/ml). The vial was allowed to stand at ambient temperature for 10 minutes, then heated in a boiling water bath for 15 minutes.

[2] = removal from the blood in a single pass through the kidney; cited from earlier work
[3] = dissection at 2 hr, group value

O=C(O)CNC(=O)c1ccccc1[131I] [Hippuran-I-131, sodium iodo- hippurate, reference compound]
hepatobiliary excretion [1]: some hepatobiliary excretion | Dissection at 2 hr; % of injected dose: Bladder [1, 3]: 93.0 % of injected dose | Dissection at 2 hr; % of injected dose: Kidneys [1, 3]: 0.2 % of injected dose | Dissection at 2 hr; % of injected dose: Liver [1, 3]: 0.2 % of injected dose | % in bladder of that at 2 hrs. ([1]; time 5 min): 33.4% | % in bladder of that at 2 hrs. ([1]; time 10 min): 53.8% | % in bladder of that at 2 hrs. ([1]; time 15 min): 63.9% | % in bladder of that at 2 hrs. ([1]; time 20 min): 72.4% | % in bladder of that at 2 hrs. ([1]; time 25 min): 80.5% | % in bladder of that at 2 hrs. ([1]; time 30 min): 85.0% | % in bladder of that at 2 hrs. ([1]; time 60 min): 93.0% | removed in a single pass [2]: About 80%
